{
  "source": "patent US20260027083A1",
  "about": "“USE OF PPAR AGONIST FOR IMPROVEMENT OF ENERGY METABOLISM” (NOVMETAPHARMA CO., LTD., priority 2022, published 2026)",
  "key": {"[1]": {"target": "T1, His-tagged recombinant human PPARα ligand binding domain (Homo sapiens, UniProt Q07869)", "T1 construct": "made in house; host or cells: E. coli (DE3, Rosetta)", "T1 sequence (Q07869 239-466 limits assumed)": "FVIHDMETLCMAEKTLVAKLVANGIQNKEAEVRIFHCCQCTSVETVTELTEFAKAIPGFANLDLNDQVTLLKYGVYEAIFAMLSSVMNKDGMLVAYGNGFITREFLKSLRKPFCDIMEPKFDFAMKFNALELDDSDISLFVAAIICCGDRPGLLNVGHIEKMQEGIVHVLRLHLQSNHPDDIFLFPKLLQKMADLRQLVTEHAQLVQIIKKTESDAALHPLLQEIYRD", "assay": "CNBr-bead conjugation (pull-down) assay, hPPARα-LBD", "conditions": "CNBr-coupled drug, positive control WY14643, FIG. 2", "description": "(§1) A compound of the present invention represented by Chemical Formula 1 was synthesized by DAEJUNG Chemicals & Metals (Gyeonggi-do, Korea) (indicated as ‘D6’ in the drawing). WY14643, GW501516, and rosiglitazone were purchased from Sigma-Aldrich (St. Louis, MO, USA). The compounds were dissolved in dimethyl sulfoxide (DMSO), diluted in a culture solution, and used in the experiment. Cyanogen bromide (CNBr)-activated Sepharose 4B was purchased from Sigma-Aldrich (St. Louis, MO, USA). His-tagged recombinant human PPAR-ligand binding domain (LBD) was expressed in E. coli (DE3, Rosetta) and then purified and used. A His antibody was purchased from Cell Signaling Technology (Danvers, Massachusetts, USA). 3-Isobutyl-1-methylxanthine (IBMX), dexamethasone, bovine pancreatic insulin, and Oil Red O were purchased from Sigma-Aldrich (St. Louis, MO, USA). A PRO-PREP™ Protein Extraction Solution was purchased from iNtRON Biotechnology (iNtRON Biotech., Korea). […]\n(§2) 100 mg of CNBr-activated Sepharose 4B was added to an e-tube, and then the beads were activated by rotating with 1 ml of 1 mM HCl for 10 minutes at room temperature. […] Each e-tube was added with the drug and rotated overnight at 4° C., at which time the concentration was measured to be 20 μM. […] The supernatant was completely removed, and the pellet was detected by Western blotting. […]"}, "[2]": {"target": "T2, His-tagged recombinant human PPARγ ligand binding domain (Homo sapiens, UniProt P37231)", "T2 construct": "made in house; host or cells: E. coli (DE3, Rosetta)", "T2 sequence (P37231 238-503 limits assumed)": "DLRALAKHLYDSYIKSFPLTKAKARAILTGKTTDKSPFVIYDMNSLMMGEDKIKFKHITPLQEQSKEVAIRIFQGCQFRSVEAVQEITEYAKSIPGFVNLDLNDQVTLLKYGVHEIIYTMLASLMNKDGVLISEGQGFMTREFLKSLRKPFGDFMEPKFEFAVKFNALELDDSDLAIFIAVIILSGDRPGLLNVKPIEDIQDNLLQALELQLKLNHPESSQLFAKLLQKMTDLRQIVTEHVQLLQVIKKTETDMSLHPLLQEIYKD", "assay": "CNBr-bead conjugation (pull-down) assay, hPPARγ-LBD", "conditions": "CNBr-coupled drug, positive control rosiglitazone, FIG. 2", "description": "as §1, §2"}, "[3]": {"tested_on": "3T3-L1 adipocytes", "assay": "3T3-L1 adipocyte differentiation, Oil Red O staining", "assay_type": "cell-based, mouse", "conditions": "treated together with rosiglitazone, each 25 μM", "description": "A mouse preadipocyte 3T3-L1 cell line was cultured in DMEM containing 10% […] (CS) and 1% P/S. For differentiation of 3T3-L1, 10% FBS and 1% P/S were used. The cells were cultured in a 37° C. incubator humidified with 5% CO2 atmosphere.\n3T3-L1 cells were seeded in a 12-well plate at a density of 5×10^4 cells/well. […] On day 2 of MDI addition, the medium was replaced with 1 μg/ml insulin.\nAfter 2 days, the medium was replaced with DMEM containing 10% FBS and 1% P/S, and treated with a drug. The medium was replaced with fresh DMEM containing 10% FBS and 1% P/S, and treated with the drug three times every 2 days. Finally, the medium was replaced with DMEM containing only the drug in a serum-free state (serum starvation). After 2 days, differentiation of 3T3-L1 was completed.\nAfter the differentiation of 3T3-L1 in the 12-well plate was completed, the cells were fixed with 4% paraformaldehyde and stained with an Oil Red O solution, and then the stained samples were photographed under a microscope (Nikon Eclipse Ti-s). An Oil Red O dye of the samples was dissolved in isopropanol, detected by a spectrophotometer at 492 nm, and the lipid droplet size distribution was measured using ImageJ. OCT-embedded liver samples were stained according to the Roy Ellis protocol. […]"}},
  "data": [
    {"compound": "COc1ccc(-c2cc(=O)oc3c(C)c(OC(=O)[C@H](Cc4c[nH]c5ccccc45)NC(=O)OC(C)(C)C)ccc23)cc1", "note": "[Chemical Formula 1, [4-(4-methoxyphenyl)-8-methyl-2-oxochromen-7-yl] (2S)-3-(1H-indol-3-yl)-2-[(2-methylpropan-2-yl)oxycarbonylamino]propanoate]", "values": [
      {"measurement": "conjugation (binding) to hPPARα-LBD, Western blotting", "setting": "[1]", "result": "as much potently as a PPAR agonist used as a positive control"},
      {"measurement": "conjugation (binding) to hPPARγ-LBD, Western blotting", "setting": "[2]", "result": "as much potently as a PPAR agonist used as a positive control"},
      {"measurement": "lipid droplet size distribution in adipocytes", "setting": "[3]; FIG. 4 right", "result": "effectively reduced"},
      {"measurement": "lipid accumulation in adipocytes increased by rosiglitazone (Oil Red O)", "setting": "[3]; FIGS. 3 and 4 left", "result": "reduced"}
    ]}
  ]
}
